Data published in ChEMBL document CHEMBL3860093, “Cyclic peptide-based potent and selective SIRT1/2 dual inhibitors harboring Nε-thioacetyl-lysine” (Bioorg Med Chem Lett, 2016).

Columns and labels:
[1] = Stability of compound assessed as Streptomyces griseus pronase-mediated compound hydrolysis up to 6 mins by HPLC analysis; assay type: ADME; details: 0.1 h
[2] = biological target: T1, NAD-dependent protein deacetylase sirtuin-3, mitochondrial (Homo sapiens, UniProt Q9NTG7); test: Inhibition of recombinant human His6-tagged SIRT3 using H2N-HK-[Nepsilon-acetyl-lysine]-LM-COOH as substrate incubated for 10 mins in presence of beta-NAD+ by HPLC based assay
T1 sequence (Q9NTG7 whole entry): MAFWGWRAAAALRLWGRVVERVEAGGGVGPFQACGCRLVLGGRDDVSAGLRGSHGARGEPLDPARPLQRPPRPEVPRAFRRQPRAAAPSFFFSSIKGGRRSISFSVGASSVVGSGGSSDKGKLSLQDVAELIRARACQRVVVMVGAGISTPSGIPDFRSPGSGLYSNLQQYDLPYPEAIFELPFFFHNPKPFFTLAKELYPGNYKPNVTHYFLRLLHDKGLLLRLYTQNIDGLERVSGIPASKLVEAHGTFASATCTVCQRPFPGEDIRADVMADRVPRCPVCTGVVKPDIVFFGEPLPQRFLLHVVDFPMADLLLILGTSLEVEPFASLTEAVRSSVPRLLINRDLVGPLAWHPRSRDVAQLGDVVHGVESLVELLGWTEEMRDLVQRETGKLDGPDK

[3] = organism: Homo sapiens; test: Selectivity ratio of IC50 for recombinant human His6-tagged SIRT3 to IC50 for recombinant human GST or His6-tagged SIRT1
[4] = biological target: T2, NAD-dependent protein deacetylase sirtuin-2 (Homo sapiens, UniProt Q8IXJ6); test: Inhibition of recombinant human His6-tagged SIRT2 using H2N-HK-[Nepsilon-acetyl-lysine]-LM-COOH as substrate incubated for 12 mins in presence of beta-NAD+ by HPLC based assay
T2 sequence (Q8IXJ6 whole entry): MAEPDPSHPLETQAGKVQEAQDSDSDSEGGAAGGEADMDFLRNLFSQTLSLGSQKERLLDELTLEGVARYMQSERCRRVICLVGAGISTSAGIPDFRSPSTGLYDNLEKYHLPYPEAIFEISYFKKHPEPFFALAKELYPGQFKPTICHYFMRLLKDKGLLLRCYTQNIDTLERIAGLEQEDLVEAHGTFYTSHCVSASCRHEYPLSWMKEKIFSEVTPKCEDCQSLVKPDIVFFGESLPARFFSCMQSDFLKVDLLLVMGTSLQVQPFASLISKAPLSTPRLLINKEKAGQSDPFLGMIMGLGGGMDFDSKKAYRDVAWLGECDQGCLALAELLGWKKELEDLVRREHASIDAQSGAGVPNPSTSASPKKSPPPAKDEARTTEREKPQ

[5] = biological target: T3, NAD-dependent protein deacetylase sirtuin-1 (Homo sapiens, UniProt Q96EB6); test: Inhibition of recombinant human GST or His6-tagged SIRT1 using H2N-HK-[Nepsilon-acetyl-lysine]-LM-COOH as substrate incubated for 10 mins in presence of beta-NAD+ by HPLC based assay
T3 sequence (Q96EB6 whole entry): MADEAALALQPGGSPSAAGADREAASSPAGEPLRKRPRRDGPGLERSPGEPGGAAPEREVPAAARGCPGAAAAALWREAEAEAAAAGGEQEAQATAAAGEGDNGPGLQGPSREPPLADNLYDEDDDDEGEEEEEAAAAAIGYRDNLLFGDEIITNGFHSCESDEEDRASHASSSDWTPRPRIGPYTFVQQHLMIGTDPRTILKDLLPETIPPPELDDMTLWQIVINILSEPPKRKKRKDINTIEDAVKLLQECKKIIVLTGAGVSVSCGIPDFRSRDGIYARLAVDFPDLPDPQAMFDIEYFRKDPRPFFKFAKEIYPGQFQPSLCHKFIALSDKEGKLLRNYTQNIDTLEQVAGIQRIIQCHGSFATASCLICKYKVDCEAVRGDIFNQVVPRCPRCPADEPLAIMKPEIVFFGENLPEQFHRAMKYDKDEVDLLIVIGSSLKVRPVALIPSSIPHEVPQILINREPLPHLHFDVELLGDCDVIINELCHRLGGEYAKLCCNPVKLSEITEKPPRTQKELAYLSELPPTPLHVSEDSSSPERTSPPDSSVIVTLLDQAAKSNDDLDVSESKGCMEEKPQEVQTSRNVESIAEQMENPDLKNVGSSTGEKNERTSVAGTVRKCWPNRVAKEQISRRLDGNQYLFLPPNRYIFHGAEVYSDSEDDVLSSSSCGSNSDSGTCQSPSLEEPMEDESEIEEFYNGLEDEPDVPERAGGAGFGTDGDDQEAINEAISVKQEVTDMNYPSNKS

[6] = organism: Homo sapiens; test: Selectivity ratio of IC50 for recombinant human His6-tagged SIRT3 to IC50 for recombinant human His6-tagged SIRT2
[7] = biological target: NAD-dependent protein deacylase sirtuin-5, mitochondrial (Homo sapiens, UniProt Q9NXA8); test: Inhibition of recombinant human GST-tagged SIRT5 using CH3CONH-AR-[Nepsilon-succinyl-lysine]-ST-CONH2 as substrate incubated for 5 mins in presence of beta-NAD+ by HPLC based assay
NAD-dependent protein deacylase sirtuin-5, mitochondrial, sequence (Q9NXA8 whole entry): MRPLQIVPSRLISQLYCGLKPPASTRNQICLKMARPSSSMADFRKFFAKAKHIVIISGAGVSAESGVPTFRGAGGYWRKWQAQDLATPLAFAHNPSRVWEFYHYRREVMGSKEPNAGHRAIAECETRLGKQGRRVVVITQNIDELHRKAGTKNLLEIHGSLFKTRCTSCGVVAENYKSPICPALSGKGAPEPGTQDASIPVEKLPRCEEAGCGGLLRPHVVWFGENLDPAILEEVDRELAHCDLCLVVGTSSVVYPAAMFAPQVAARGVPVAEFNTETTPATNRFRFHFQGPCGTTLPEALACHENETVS

[8] = biological target: NAD-dependent protein deacylase sirtuin-6 (Homo sapiens, UniProt Q8N6T7); test: Inhibition of recombinant human His6-tagged SIRT6 using H2N-EALPK-[Nepsilon-myristoyl-lysine]-TGGPQ-CONH2 as substrate incubated for 12 mins in presence of beta-NAD+ by HPLC based assay
NAD-dependent protein deacylase sirtuin-6, sequence (Q8N6T7 whole entry): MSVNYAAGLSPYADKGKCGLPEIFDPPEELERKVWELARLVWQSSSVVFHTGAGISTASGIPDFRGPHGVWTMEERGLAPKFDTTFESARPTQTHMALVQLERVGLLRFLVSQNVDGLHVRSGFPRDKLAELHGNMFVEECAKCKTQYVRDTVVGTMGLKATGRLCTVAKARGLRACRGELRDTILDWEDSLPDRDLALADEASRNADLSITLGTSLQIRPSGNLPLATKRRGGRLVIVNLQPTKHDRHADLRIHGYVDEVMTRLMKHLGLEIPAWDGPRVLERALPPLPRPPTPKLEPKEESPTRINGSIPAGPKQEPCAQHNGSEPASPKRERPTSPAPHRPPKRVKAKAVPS

[9] = Stability of compound assessed as Streptomyces griseus pronase-mediated compound hydrolysis up to 60 mins by HPLC analysis; assay type: ADME; details: 1 h
[10] = biological target: T4, NAD-dependent protein deacetylase sirtuin-1 (Homo sapiens) (UniProt Q96EB6); test: Inhibition of SIRT1 in human HCT116 cells assessed as increase in p53 acetylation at lysine-382 residue after 8 hrs by Western blot assay; assay type: cell-based; details: HCT-116
T4 sequence (whole entry): T3 sequence (Q96EB6 whole entry)

[11] = Stability of compound assessed as Streptomyces griseus pronase-mediated compound hydrolysis up to 40 mins by HPLC analysis; assay type: ADME

Molecule	Stability [1]	IC50 [2] [µM]	Ratio IC50 [3]	IC50 [4] [µM]	IC50 [5] [µM]	Ratio IC50 [6]	IC50 [7] [µM]	IC50 [8] [µM]	Stability [9]	inhibition [10]	Stability [11]
H-HKK(Ac)LM-OH	Unstable										
CC(=S)NCCCC[C@@H]1NC(=O)CNC(=O)CCCCCCC(=O)NCCCC[C@@H](C(N)=O)NC1=O		3.39	0.9	3.9	3.84	0.9					
CC(=S)NCCCC[C@@H]1NC(=O)[C@H](Cc2ccc3ccccc3c2)NC(=O)CCCCCCC(=O)NC[C@@H](C(N)=O)NC1=O		3.5	4.9	1.5	0.71	2.3					
CN(C)CCCCC(=O)Nc1ccc(NC(=S)NC(=O)c2ccc(C(C)(C)C)cc2)cc1		25.7									
CC(=S)NCCCC[C@@H]1NC(=O)[C@H](Cc2ccc3ccccc3c2)NC(=O)CCCCCCC(=O)NCC[C@@H](C(N)=O)NC1=O				2.4	1.1		> 6000	> 4000	Stable		
CC(=S)NCCCC[C@@H]1NC(=O)[C@H](Cc2csc3ccccc23)NC(=O)CCCCCCC(=O)NC[C@@H](C(N)=O)NC1=O		2.51	2.1	4.24	1.21	0.6					
CC(C(=O)Nc1cccc(/N=C/c2c(O)ccc3ccccc23)c1)c1ccccc1 (stereo unspecified) [SALERMIDE]				20.3	37.5						
CC(=S)NCCCC[C@@H]1NC(=O)[C@H](Cc2ccc3ccccc3c2)NC(=O)CCCCCCC(=O)NCCCC[C@@H](C(N)=O)NC1=O		1.94	3.4	1.4	0.57	1.4					
CC(=S)NCCCC[C@@H]1NC(=O)CNCCC(=O)NCCCC[C@@H](C(N)=O)NC1=O		56.9	2.6	24.3	22	2.3					

Further molecules by falling IC50 [4], results first:

Stability [1]	IC50 [2] [µM]	Ratio IC50 [3]	IC50 [4] [µM]	IC50 [5] [µM]	Ratio IC50 [6]	IC50 [7] [µM]	IC50 [8] [µM]	Stability [9]	inhibition [10]	Stability [11]	Molecule
	3.2	17.8	1.2	0.18	2.7						CC(=S)NCCCC[C@@H]1NC(=O)[C@H](Cc2ccc3ccccc3c2)NC(=O)CCCCCCC(=O)NCCC[C@@H](C(N)=O)NC1=O
	10	7.9	1.16	1.27	8.6	> 2000	> 1000				CC(=S)NCCCC[C@@H]1NC(=O)[C@H](Cc2csc3ccccc23)NC(=O)CCCCCCC(=O)NCC[C@@H](C(N)=O)NC1=O
	3.82	7.6	0.89	0.5	4.3	> 200	> 1000			Stable	CC(=S)NCCCC[C@@H]1NC(=O)[C@H](Cc2csc3ccccc23)NC(=O)CCCCCCC(=O)NCCCC[C@@H](C(N)=O)NC1=O
	3.18	4.7	0.48	0.68	6.6	> 300	> 2000				CC(=S)NCCCC[C@@H]1NC(=O)[C@H](Cc2csc3ccccc23)NC(=O)CCCCCCC(=O)NCCC[C@@H](C(N)=O)NC1=O
	1.48	1.8	0.42	0.82	3.5						CCCC[C@@H]1NC(=O)CCCCCCC(=O)NCC[C@@H](C(N)=O)NC(=O)[C@H](CCCCNC(C)=S)NC1=O
	0.47	2.1	0.24	0.22	2						CCCC[C@@H]1NC(=O)CCCCCCC(=O)NCCCC[C@@H](C(N)=O)NC(=O)[C@H](CCCCNC(C)=S)NC1=O
	1.82		0.22	0.27				Stable	Dose-dependent effect		CCCC[C@@H]1NC(=O)CCCCCCC(=O)NCCC[C@@H](C(N)=O)NC(=O)[C@H](CCCCNC(C)=S)NC1=O
	1.06	2.4	0.18	0.45	5.9						CCCC[C@@H]1NC(=O)CCCCCCC(=O)NC[C@@H](C(N)=O)NC(=O)[C@H](CCCCNC(C)=S)NC1=O
